In patent US8163766B2, “Beta-secretase modulators and methods of use” (Amgen Inc., priority 2005, dated 2012):

The molecules below were run on Aβ 40 in conditioned media of cells stably expressing Amyloid Precursor Protein (APP) (assay: BACE Cell-Based Assay (Aβ40 in conditioned medium, sandwich ELISA)). Conditions: 24 hours of incubation with the test compounds, Aβ 40 by sandwich ELISA, read-out: IC50 values in the cell-based assay (inhibition of Aβ 40).
Protocol: The cell-based assay measures inhibition or reduction of Aβ40 in conditioned medium of test compound treated cells, which express amyloid precursor protein.
Cells stably expressing Amyloid Precursor Protein (APP) were plated at a density of 40K cells/well in 96 well plates (Costar). The cells were cultivated for 24 h at 37° C. and 5% CO2 in DMEM supplemented with 10% FBS. The test compounds were then added to cells in 10-point dose response concentrations with the starting concentration being either 100 μM or 10 μM. The compounds were diluted from stock solutions in DMSO and the final DMSO concentration of the test compounds on cells was 0.1%. After 24 hours of incubation with the test compounds the supernatant conditioned media was collected and the Aβ 40 levels were determined using a sandwich ELISA. The IC50 of the compound was calculated from the percent of control or percent inhibition of Aβ 40 as a function of the concentration of the test compound.
The sandwich ELISA to detect Aβ 40 was performed in 96 well microtiter plates, which were pre-treated with goat anti-rabbit IgG (Pierce). The capture and detecting antibody pair that were used to detect Aβ 40 from cell supernatants were affinity purified pAb40 (Biosource) and biotinylated 6E10 (Signet Labs Inc.), respectively. The optimal concentration for the pAb40 antibody was 3 μg/ml in Superblock/TBS (Pierce) that was supplemented with 0.05% Tween 20 (Sigma). Optimal concentration for the detection antibody 6E10-biotinylated was […] in Superblock/TBS (Pierce) that had been supplemented with 2% normal goat serum and 2% normal mouse serum.
Cellular supernatants were incubated with the capture antibody for 3 h at 4° C., followed by 3 wash steps in TBS-tween (0.05%). The detecting antibody incubation was for 2 h at 4° C., again followed by the wash steps as described previously. The final readout of the ELISA is Time-Resolved Fluorescence (counts per minute) using Delfia reagents Streptavidin-Europium and Enhancement solutions (Perkin Elmer) and the Victor 2 multilabel counter (Perkin Elmer).

IC50, ≤ 5 µM:
CCc1ccc2c(c1)[C@@H](NC[C@@H](O)[C@H](Cc1ccccc1)NC(=O)[C@H]1CN(C)c3ccccc3O1)CC1(CCCC1)O2 [Example 47, (R)—N-((2S,3R)-4-((S)-6-ethyl-2,2-spirocyclopentylchroman-4-ylamino)-3-hydroxy-1-phenylbutan-2-yl)-4-methyl-3,4-dihydro-2H-benzo[b][1,4]oxazine-2-carboxamide]
O=C(N[C@@H](Cc1ccccc1)[C@H](O)CN[C@H]1CC2(CCCC2)Oc2ccc(Br)cc21)c1cc(N2CCCC2=O)c(=O)n(C2CCCC2)c1 [Example 121]
CCc1ccc2c(c1)C(NC[C@@H](O)[C@H](Cc1ccccc1)NC(=O)c1cc(C#N)c(=O)n(C3CCCC3)c1)CC1(CCCC1)O2 (stereo partly shown) [Example 1]
CC1(C)Cc2ccc(O[C@H]3CCOC3)cc2[C@@H](NC[C@@H](O)[C@H](Cc2ccccc2)NC(=O)c2cc(-c3ccccn3)c(=O)n(C3CCCC3)c2)C1 [Example 519, 1′-cyclopentyl-N-((1S,2R)-3-(((1S)-3,3-dimethyl-7-((3S)-tetrahydro-3-furanyloxy)-1,2,3,4-tetrahydro-1-naphthalenyl)amino)-2-hydroxy-1-(phenylmethyl)propyl)-2′-oxo-1′,2′-dihydro-2,3′-bipyridine-5′-carboxamide]
Cc1cnc2c(c1)[C@@H](NC[C@@H](O)[C@H](Cc1cc(F)cc(F)c1)NC(=O)[C@@H]1CCOC1)CC1(CCC1)C2 [Example 509, (3R)-N-((1S,2R)-1-((3,5-difluorophenyl)methyl)-2-hydroxy-3-(((5′S)-3′-methyl-5′,8′-dihydro-6′H-spiro[cyclobutane-1,7′-quinolin]-5′-yl)amino)propyl)tetrahydro-3-furancarboxamide]
CCc1ccc2c(c1)[C@@H](NC[C@@H](O)[C@H](Cc1ccccc1)NC(=O)c1ccc(=O)n(C3CCCC3)c1)CC1(CCCC1C)O2 (stereo partly drawn) [Example 141, 1-cyclopentyl-N-((2S,3R)-4-((S)-6-ethyl-2,2-(-methyl)-spirocyclopentylchroman-4-ylamino)-3-hydroxy-1-phenylbutan-2-yl)-6-oxo-1,6-dihydropyridine-3-carboxamide]
CCc1ccc2c(c1)[C@@H](NC[C@@H](O)[C@H](Cc1ccccc1)NC(=O)C1CN(Cc3ccccc3)CCO1)CC1(CCCC1)O2 (stereo partly drawn) [Example 29, 4-Benzyl-N-((2S,3R)-4-((S)-6-ethyl-2,2-spirocyclopentylchroman-4-ylamino)-3-hydroxy-1-phenylbutan-2-yl) morpholine-2-carboxamide]
CCc1cc2c(s1)CC(C)(C)C[C@@H]2NC[C@@H](O)[C@H](Cc1ccccc1)NC(=O)[C@H]1CC(=O)N(C2CCC2)C1 [Example 523, (3S)-1-cyclobutyl-N-((1S,2R)-3-(((4S)-2-ethyl-6,6-dimethyl-4,5,6,7-tetrahydro-1-benzothien-4-yl)amino)-2-hydroxy-1-(phenylmethyl)propyl)-5-oxo-3-pyrrolidinecarboxamide]
Cc1cccc(C(=O)N2CCO[C@H](C(=O)N[C@@H](Cc3cc(F)cc(F)c3)[C@H](O)CN[C@H]3CC4(CCC4)Cc4ncc(C)cc43)C2)c1 [Example 492, (2S)-N-((1S,2R)-1-((3,5-difluorophenyl)methyl)-2-hydroxy-3-(((5′S)-3′-methyl-5′,8′-dihydro-6′H-spiro[cyclobutane-1,7′-quinolin]-5′-yl)amino)propyl)-4-((3-methylphenyl)carbonyl)-2-morpholinecarboxamide]
Cc1cccc(C(=O)N2CCO[C@H](C(=O)N[C@@H](Cc3cccc(C#N)c3)[C@H](O)CN[C@H]3CC4(CCC4)Cc4ncc(C)cc43)C2)c1 [Example 490, (2S)-N-((1S,2R)-1-((3-cyanophenyl)methyl)-2-hydroxy-3-(((5′S)-3′-methyl-5′,8′-dihydro-6′H-spiro[cyclobutane-1,7′-quinolin]-5′-yl)amino)propyl)-4-((3-methylphenyl)carbonyl)-2-morpholinecarboxamide]
CCc1ccc2c(c1)[C@@H](NC[C@@H](O)[C@H](Cc1ccccc1)NC(=O)c1nn(-c3ccccc3)c(=O)cc1Cl)CC1(CCC1)O2 [Example 147, 4-chloro-N-((2S,3R)-4-((S)-6-ethyl-2,2-spirocyclobutylchroman-4-ylamino)-3-hydroxy-1-phenylbutan-2-yl)-6-oxo-1-phenyl-1,6-dihydropyridazine-3-carboxamide]
CC(C)Cn1cc(C(=O)N[C@@H](Cc2ccccc2)[C@H](O)CN[C@H]2CC3(CCCC3)Oc3ccc(Br)cc32)ccc1=O [Example 123]
CCc1ccc2c(c1)C(NC[C@@H](O)[C@H](Cc1ccccc1)NC(=O)c1cc(N3CCCC3)c(=O)n(C3CCCC3)c1)CC1(CCCC1)O2 (stereo partly drawn) [Example 17, 1-cyclopentyl-N-((2S,3R)-4-(6-ethyl-2,2-spirocyclopentylchroman-4-ylamino)-3-hydrodroxy-1-phenylbutan-2-yl)-6-OXO-5-(pyrrolidin-1-yl)-1,6-dihydropyridine-3-carboxamide]
CCc1ccc2c(c1)[C@@H](NC[C@@H](O)[C@H](Cc1ccccc1)NC(=O)c1ccc(=O)n(C3CCCC3)c1)CC1(CCC1)O2 [Example 117]
CC(C)(C)Cc1ccc2c(c1)[C@@H](NC[C@@H](O)[C@H](Cc1ccccc1)NC(=O)c1cc(N3CCCC3=O)c(=O)n(C3CCCC3)c1)CC1(CCCC1)O2 [Example 124]
Cc1cnc2c(c1)[C@@H](NC[C@@H](O)[C@H](Cc1ccccc1)NC(=O)C1CCOCC1)CC(C)(C)C2 [Example 504, N-((1S,2R)-2-hydroxy-1-(phenylmethyl)-3-(((5S)-3,7,7-trimethyl-5,6,7,8-tetrahydro-5-quinolinyl)amino)propyl)tetrahydro-2H-pyran-4-carboxamide]
CC(C)(C)Cc1cnc2c(c1)[C@@H](NC[C@@H](O)[C@H](Cc1ccccc1)NC(=O)c1cc(C3CCCCO3)c(=O)n(C3CCCC3)c1)CC1(CCC1)O2 (stereo partly drawn) [Example 522, 1-cyclopentyl-N-((1S,2R)-3-(((4′S)-6′-(2,2-dimethyl-propyl)-3′,4′-dihydrospiro[cyclobutane-1,2′-pyrano[2,3-b]pyridin]-4′-yl)amino)-2-hydroxy-1-(phenyl-methyl)propyl)-6-oxo-5-(tetrahydro-2H-pyran-2-yl)-1,6-dihydro-3-pyridinecarboxamide]
CC(C)(C)Cn1cc(C(=O)N[C@@H](Cc2ccccc2)[C@H](O)CN[C@H]2CC3(CCCC3)Oc3ccc(OC(F)(F)F)cc32)ccc1=O [Example 136, N-((2S,3R)-4-((S)-2,2-spirocyclopentyl-6-(trifluoro-methoxy)chroman-4-ylamino)-3-hydroxy-1-phenylbutan-2-yl)-1-neopentyl-6-oxo-1,6-dihydropyridine-3-carboxamide]
CCc1ccc2c(c1)C(NC[C@@H](O)[C@H](Cc1ccccc1)NC(=O)c1cc(N(C)C)c(=O)n(C3CCCC3)c1)CC1(CCCC1)O2 (stereo partly drawn) [Example 19, 1-cyclopentyl-5-(dimethylamino)-N-((2S,3R)-4-(6-ethyl-2,2-spirocyclopentylchroman-4-ylamino)-3-hydrodroxy-1-phenylbutan-2-yl)-6-oxo-1,6-dihydropyridine-3-carboxamide]
CCc1ccc2c(c1)[C@@H](NC[C@@H](O)[C@H](Cc1ccccc1)NC(=O)c1nn(-c3ccccc3)c(=O)cc1Cl)CC1(CCCC1)O2 [Example 142, 4-chloro-N-((2S,3R)-4-((S)-6-ethyl-2,2-spirocyclopentylchroman-4-ylamino)-3-hydroxy-1-phenylbutan-2-yl)-6-oxo-1-phenyl-1,6-dihydropyridazine-3-carboxamide]
CCc1ccc2c(c1)[C@@H](NC[C@@H](O)[C@H](Cc1ccccc1)NC(=O)[C@@H]1CN(C(C)=O)c3ccccc3O1)CC1(CCCC1)O2 [Example 51, (S)-4-acetyl-N-((2S,3R)-4-((S)-6-ethyl-2,2-spirocyclopentylchroman-4-ylamino)-3-hydroxy-1-phenylbutan-2-yl)-3,4-dihydro-2H-benzo[b][1,4]oxazine-2-carboxamide]
CC1(C)Cc2ccc(O[C@H]3CCOC3)cc2[C@@H](NC[C@@H](O)[C@H](Cc2ccccc2)NC(=O)c2ccc(=O)n(C3CCCC3)c2)C1 [Example 518, 1-cyclopentyl-N-((1S,2R)-3-(((1S)-3,3-dimethyl-7-((3S)-tetrahydro-3-furanyloxy)-1,2,3,4-tetrahydro-1-naphthalenyl)amino)-2-hydroxy-1-(phenylmethyl)propyl)-6-oxo-1,6-dihydro-3-pyridinecarboxamide]
